# Test results taken from ChEMBL document CHEMBL5465560, “Selectivity Literature for EUbOPEN Chemogenomic Library” (2024).
# Assays:
# [1] = Selectivity interaction (Eurofins CEREP Diversity Profile (receptors and ion channels)) EUB0000279b CRH; conditions: at 10 µM
# [2] = biological target: T1, Dual specificity mitogen-activated protein kinase kinase 5 (Homo sapiens) (UniProt Q13163); assay: Selectivity interaction (KinomeScan (DiscoverX)) EUB0000618a MAP2K5; conditions: at 10 µM
# T1 sequence (whole entry): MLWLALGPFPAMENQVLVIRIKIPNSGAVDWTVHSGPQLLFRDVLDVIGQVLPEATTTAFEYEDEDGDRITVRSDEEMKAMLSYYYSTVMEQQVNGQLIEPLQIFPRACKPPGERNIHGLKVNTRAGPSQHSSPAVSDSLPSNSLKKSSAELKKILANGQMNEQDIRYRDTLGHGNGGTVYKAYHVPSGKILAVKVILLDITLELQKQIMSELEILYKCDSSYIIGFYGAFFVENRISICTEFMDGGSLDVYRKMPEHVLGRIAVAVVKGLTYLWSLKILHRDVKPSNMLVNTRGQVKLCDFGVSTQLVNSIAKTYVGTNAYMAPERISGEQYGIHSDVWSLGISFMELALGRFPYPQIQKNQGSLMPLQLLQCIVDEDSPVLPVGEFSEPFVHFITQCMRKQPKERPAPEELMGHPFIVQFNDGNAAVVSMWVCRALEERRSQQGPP
# [3] = biological target: Rho-associated protein kinase 1 (Homo sapiens) (UniProt Q13464); assay: Selectivity interaction (KinomeScan (DiscoverX)) EUB0000045b ROCK1
# [4] = biological target: Serine/threonine-protein kinase N1 (Homo sapiens, UniProt Q16512); assay: Selectivity interaction (KinomeScan (DiscoverX)) EUB0000595a PKN1; conditions: at 10 µM
# [5] = biological target: Myosin light chain kinase, smooth muscle (Homo sapiens, UniProt Q15746); assay: Selectivity interaction (KinomeScan (DiscoverX)) EUB0000595a MYLK; conditions: at 10 µM
# [6] = biological target: Serine/threonine-protein kinase MARK2 (Homo sapiens) (UniProt Q7KZI7); assay: Selectivity interaction (KinomeScan (DiscoverX)) EUB0000229b MARK2; conditions: at 10 µM
# [7] = biological target: Dual specificity protein kinase CLK4 (Homo sapiens, UniProt Q9HAZ1); assay: Selectivity interaction (KinomeScan (DiscoverX)) EUB0000229b CLK4; conditions: at 10 µM
# [8] = biological target: Serine/threonine-protein kinase PAK 1 (Homo sapiens) (UniProt Q13153); assay: Selectivity interaction (ProQinase) EUB0000171b PAK1
# [9] = biological target: T2, cAMP-dependent protein kinase catalytic subunit PRKX (Homo sapiens) (UniProt P51817); assay: Selectivity interaction (KinomeScan (DiscoverX)) EUB0001049a PRKX; conditions: at 1 µM
# T2 sequence (whole entry): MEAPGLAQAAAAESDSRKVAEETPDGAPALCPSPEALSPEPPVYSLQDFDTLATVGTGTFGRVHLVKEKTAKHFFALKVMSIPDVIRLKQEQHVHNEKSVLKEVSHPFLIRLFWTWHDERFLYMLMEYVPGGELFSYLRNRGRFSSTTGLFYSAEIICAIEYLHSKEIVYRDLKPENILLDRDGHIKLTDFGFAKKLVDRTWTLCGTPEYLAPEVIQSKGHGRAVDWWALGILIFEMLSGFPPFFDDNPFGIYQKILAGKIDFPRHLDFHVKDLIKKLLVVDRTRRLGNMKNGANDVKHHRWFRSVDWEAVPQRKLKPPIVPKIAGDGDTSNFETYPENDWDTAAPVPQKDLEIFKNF
# [10] = biological target: T3, Calcium/calmodulin-dependent protein kinase type IV (Homo sapiens) (UniProt Q16566); assay: Selectivity interaction (KinomeScan (DiscoverX)) EUB0001049a CAMK4; conditions: at 1 µM
# T3 sequence (whole entry): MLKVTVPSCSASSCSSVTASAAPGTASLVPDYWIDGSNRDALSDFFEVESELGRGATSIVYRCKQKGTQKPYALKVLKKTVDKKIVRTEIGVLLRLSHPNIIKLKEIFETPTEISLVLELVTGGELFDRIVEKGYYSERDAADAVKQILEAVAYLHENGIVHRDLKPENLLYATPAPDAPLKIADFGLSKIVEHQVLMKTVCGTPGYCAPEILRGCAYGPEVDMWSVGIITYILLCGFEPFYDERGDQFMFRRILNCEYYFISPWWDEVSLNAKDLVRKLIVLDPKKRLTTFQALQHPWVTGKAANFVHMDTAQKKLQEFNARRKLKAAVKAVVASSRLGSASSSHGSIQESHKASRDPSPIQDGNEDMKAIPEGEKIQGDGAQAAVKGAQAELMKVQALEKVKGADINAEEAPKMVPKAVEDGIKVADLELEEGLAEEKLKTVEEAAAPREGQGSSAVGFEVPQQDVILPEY
# [11] = biological target: T4, Serine/threonine-protein kinase Nek2 (Homo sapiens) (UniProt P51955); assay: Selectivity interaction (KinomeScan (DiscoverX)) EUB0000666a NEK2; conditions: at 10 µM
# T4 sequence (whole entry): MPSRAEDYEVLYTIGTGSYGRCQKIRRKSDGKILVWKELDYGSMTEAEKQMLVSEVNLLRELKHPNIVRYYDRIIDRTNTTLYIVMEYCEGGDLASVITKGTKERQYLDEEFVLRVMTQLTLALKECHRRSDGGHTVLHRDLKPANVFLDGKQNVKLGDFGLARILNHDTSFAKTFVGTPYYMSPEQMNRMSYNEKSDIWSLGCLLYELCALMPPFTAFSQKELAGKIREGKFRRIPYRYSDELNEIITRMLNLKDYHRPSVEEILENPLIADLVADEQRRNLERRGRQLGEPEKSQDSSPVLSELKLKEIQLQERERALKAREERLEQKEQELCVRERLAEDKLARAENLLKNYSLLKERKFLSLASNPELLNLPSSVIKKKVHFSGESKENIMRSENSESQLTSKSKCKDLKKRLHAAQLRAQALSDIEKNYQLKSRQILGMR
# [12] = biological target: Cyclin-dependent kinase 11B (Homo sapiens) (UniProt P21127); assay: Selectivity interaction (KinomeScan (DiscoverX)) EUB0000092b CDK11B; conditions: at 10 µM
# [13] = biological target: Glycogen synthase kinase-3 beta (Homo sapiens, UniProt P49841); assay: Selectivity interaction (KinomeScan (DiscoverX)) EUB0000092b GSK3B; conditions: at 10 µM
# [14] = system: Proto-oncogene tyrosine-protein kinase receptor Ret (Homo sapiens), P07949 [V804M]; assay: (§1) Selectivity interaction (KinomeScan (DiscoverX)) EUB0000092b RET; conditions: at 10 µM
# [15] = system: Proto-oncogene tyrosine-protein kinase receptor Ret (Homo sapiens), P07949 [V804L]; assay: as §1; conditions: at 10 µM
# [16] = biological target: Proto-oncogene tyrosine-protein kinase receptor Ret (Homo sapiens, UniProt P07949); assay: as §1; conditions: at 10 µM
# [17] = system: Proto-oncogene tyrosine-protein kinase receptor Ret (Homo sapiens), P07949 [M918T]; assay: as §1; conditions: at 10 µM
# [18] = biological target: Serine/threonine-protein kinase Nek4 (Homo sapiens) (UniProt P51957); assay: Selectivity interaction (KinomeScan (DiscoverX)) EUB0000092b NEK4; conditions: at 10 µM
# [19] = biological target: Serine/threonine-protein kinase 16 (Homo sapiens, UniProt O75716); assay: Selectivity interaction (Enzymatic assay) EUB0001550a STK16
# Sequence of Rho-associated protein kinase 1 (Homo sapiens) (Q13464 2-1354 limits assumed): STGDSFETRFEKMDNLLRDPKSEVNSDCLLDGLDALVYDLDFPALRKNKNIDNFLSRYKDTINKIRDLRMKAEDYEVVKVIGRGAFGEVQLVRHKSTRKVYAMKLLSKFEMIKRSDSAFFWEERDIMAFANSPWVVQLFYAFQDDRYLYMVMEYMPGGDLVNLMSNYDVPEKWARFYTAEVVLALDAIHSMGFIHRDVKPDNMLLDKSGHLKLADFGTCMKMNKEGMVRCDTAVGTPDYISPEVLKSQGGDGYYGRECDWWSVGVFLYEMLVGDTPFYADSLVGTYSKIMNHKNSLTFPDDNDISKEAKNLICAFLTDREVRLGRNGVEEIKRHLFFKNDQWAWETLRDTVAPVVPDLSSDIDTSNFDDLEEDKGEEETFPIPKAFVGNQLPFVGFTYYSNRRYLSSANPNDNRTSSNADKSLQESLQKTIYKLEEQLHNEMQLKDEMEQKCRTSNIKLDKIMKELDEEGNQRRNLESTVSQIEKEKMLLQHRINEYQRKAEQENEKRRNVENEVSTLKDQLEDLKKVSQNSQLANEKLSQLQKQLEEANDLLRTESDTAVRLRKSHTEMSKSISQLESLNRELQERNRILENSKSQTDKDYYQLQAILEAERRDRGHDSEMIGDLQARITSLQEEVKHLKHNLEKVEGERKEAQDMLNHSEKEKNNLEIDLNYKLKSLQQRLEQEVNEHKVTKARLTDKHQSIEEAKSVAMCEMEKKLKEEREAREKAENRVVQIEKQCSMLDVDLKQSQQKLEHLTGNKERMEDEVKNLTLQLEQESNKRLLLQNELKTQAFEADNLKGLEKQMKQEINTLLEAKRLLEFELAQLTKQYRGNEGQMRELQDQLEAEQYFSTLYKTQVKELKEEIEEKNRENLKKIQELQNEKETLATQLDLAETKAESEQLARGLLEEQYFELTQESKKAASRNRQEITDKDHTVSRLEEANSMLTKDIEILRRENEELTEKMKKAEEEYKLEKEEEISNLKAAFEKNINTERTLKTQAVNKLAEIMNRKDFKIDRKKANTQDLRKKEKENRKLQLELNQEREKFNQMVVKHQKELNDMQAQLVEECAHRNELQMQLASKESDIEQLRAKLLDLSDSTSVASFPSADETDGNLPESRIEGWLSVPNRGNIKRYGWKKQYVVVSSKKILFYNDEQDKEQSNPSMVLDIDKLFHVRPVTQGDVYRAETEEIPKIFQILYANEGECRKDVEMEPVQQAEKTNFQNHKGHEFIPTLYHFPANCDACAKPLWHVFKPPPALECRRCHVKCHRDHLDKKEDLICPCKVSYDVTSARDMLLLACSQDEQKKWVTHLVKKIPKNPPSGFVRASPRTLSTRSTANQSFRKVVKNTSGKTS
# Sequence of Serine/threonine-protein kinase PAK 1 (Homo sapiens) (Q13153 whole entry): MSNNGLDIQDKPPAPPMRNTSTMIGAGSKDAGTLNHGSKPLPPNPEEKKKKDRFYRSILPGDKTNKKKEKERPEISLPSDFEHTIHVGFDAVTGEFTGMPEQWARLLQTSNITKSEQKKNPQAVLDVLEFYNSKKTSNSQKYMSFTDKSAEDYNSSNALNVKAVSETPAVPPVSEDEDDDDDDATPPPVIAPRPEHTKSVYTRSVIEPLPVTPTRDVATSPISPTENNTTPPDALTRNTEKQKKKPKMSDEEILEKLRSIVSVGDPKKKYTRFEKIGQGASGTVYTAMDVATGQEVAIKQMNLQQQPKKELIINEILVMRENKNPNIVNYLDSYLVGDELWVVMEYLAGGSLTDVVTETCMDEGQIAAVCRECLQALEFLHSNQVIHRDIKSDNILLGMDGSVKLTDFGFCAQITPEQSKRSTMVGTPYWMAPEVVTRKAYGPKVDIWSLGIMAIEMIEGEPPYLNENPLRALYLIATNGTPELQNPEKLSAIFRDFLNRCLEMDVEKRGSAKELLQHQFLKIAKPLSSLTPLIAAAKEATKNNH
# Sequence of Proto-oncogene tyrosine-protein kinase receptor Ret (Homo sapiens), P07949 [M918T] (P07949 whole entry M918T): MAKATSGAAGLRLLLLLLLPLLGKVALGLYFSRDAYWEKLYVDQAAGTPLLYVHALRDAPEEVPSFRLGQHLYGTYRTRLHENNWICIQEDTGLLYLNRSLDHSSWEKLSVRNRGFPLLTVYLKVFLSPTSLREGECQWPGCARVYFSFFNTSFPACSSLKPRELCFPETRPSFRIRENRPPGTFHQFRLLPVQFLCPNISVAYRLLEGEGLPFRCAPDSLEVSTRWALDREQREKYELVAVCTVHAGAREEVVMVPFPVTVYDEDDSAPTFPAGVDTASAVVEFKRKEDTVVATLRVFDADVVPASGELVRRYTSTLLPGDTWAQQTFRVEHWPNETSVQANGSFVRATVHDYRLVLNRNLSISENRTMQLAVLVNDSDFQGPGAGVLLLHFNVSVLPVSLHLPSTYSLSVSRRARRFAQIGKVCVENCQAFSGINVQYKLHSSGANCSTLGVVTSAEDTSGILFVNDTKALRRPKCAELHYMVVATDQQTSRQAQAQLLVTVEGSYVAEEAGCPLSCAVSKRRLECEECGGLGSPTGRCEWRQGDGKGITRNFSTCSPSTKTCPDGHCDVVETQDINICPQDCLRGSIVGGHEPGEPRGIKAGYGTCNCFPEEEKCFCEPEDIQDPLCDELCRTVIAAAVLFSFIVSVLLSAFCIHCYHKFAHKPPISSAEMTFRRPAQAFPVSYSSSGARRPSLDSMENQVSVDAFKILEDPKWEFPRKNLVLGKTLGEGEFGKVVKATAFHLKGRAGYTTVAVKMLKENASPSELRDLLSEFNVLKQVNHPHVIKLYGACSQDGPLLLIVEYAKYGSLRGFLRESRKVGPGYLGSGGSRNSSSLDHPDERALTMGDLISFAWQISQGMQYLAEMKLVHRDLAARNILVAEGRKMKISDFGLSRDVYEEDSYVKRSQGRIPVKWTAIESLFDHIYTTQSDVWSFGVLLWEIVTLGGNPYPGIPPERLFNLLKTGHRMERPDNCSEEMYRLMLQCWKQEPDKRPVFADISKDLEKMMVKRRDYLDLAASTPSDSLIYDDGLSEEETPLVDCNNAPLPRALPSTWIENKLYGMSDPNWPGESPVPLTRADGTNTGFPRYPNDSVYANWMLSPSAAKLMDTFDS
# Sequence of Proto-oncogene tyrosine-protein kinase receptor Ret (P07949 whole entry): as the sequence (P07949 whole entry M918T) above, with T918M counted along it
# Sequence of Serine/threonine-protein kinase MARK2 (Homo sapiens) (Q7KZI7 whole entry): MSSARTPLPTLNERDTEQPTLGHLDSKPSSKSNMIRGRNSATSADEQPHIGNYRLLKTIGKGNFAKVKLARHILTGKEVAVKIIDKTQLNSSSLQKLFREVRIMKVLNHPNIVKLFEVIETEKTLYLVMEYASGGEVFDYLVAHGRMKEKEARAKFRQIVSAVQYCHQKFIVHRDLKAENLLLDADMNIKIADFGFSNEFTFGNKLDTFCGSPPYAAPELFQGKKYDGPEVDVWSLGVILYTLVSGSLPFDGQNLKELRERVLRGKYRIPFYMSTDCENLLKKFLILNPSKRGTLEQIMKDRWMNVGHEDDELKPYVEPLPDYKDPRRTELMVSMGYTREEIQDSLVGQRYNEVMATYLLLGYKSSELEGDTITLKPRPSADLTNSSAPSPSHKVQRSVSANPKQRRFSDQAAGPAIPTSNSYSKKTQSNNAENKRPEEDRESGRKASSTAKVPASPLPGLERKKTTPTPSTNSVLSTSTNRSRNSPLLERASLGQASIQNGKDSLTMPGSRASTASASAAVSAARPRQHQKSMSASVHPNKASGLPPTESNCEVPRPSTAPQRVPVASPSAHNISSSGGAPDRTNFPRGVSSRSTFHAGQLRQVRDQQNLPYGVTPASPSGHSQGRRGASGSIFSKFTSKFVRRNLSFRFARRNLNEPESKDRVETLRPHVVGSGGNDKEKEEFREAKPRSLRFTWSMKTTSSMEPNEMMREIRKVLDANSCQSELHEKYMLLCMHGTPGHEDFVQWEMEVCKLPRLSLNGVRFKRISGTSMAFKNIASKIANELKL
# Sequence of Proto-oncogene tyrosine-protein kinase receptor Ret (Homo sapiens), P07949 [V804M] (P07949 whole entry V804M): as the sequence (P07949 whole entry M918T) above, with V804M, T918M counted along it
# Sequence of Dual specificity protein kinase CLK4 (Q9HAZ1 whole entry, looked up): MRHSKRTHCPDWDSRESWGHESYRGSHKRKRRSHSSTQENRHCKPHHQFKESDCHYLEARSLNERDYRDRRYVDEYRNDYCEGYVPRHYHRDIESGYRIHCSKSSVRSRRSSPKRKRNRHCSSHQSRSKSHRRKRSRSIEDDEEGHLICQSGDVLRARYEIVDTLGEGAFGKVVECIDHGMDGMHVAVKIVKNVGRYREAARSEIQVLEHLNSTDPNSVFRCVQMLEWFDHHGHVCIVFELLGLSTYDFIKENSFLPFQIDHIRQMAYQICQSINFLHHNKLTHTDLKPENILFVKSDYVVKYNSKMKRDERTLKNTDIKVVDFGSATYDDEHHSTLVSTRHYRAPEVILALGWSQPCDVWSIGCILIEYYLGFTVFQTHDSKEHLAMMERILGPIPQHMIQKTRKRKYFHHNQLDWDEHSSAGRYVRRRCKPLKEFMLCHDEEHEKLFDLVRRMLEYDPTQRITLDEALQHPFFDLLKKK
# Sequence of Glycogen synthase kinase-3 beta (P49841 whole entry, looked up): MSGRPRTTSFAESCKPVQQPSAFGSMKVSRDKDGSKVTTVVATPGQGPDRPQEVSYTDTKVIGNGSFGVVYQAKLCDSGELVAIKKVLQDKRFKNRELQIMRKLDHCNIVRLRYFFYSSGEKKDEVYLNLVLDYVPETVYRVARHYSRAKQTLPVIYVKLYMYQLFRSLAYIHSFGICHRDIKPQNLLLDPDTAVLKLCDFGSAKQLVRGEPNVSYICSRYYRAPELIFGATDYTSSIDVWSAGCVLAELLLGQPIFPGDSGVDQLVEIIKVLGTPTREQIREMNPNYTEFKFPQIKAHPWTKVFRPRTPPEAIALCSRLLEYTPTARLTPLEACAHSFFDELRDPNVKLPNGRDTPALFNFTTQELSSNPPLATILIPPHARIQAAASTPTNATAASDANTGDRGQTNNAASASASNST
# Sequence of Proto-oncogene tyrosine-protein kinase receptor Ret (Homo sapiens), P07949 [V804L] (P07949 whole entry V804L): as the sequence (P07949 whole entry M918T) above, with V804L, T918M counted along it
smiles,measurement,setting,value
CC(=O)c1cc(-c2ccccc2OCC2CC2)c2ncccn12,% of control,[1],118%
O[C@H]1CC[C@H](Nc2ncc3nc(Nc4c(F)cc(F)cc4F)n([C@H]4CCOC4)c3n2)CC1,% of control,[2],75%
C=CC(=O)Nc1cc(-n2c(=O)ccc3cnc4ccc(-c5ccc(NS(C)(=O)=O)cc5)cc4c32)ccc1C,% of control,[3]; at 1 µM,56%
same,% of control,[3]; at 10 µM,59%
COCC(=O)NC/C=C/c1ccc2ncnc(Nc3ccc(Oc4ccc(C)nc4)c(C)c3)c2c1 [CP-724714],% of control,[4],100%
same,% of control,[5],100%
COc1cc(N(C)c2ccnc3ccc(C(F)(F)F)cc23)cc(OC)c1OC,% binding,[6],85%
same,% binding,[7],88%
C=CC(=O)Nc1cccc(C(=O)Nc2ccc(Nc3cc(-c4[nH]c(SC)nc4C)ccn3)cc2)c1,% of control,[8]; at 1 µM,90%
same,% of control,[8]; at 5 µM,84%
COc1cc(Nc2nc(C)cc(-c3cnn4nc(OC)ccc34)n2)cc(C(F)(F)F)c1,% of control,[9],87%
same,% of control,[10],100%
O=C(NOC[C@H](O)CO)c1ccc(F)c(F)c1Nc1ccc(I)cc1F,% of control,[11],70%
CCC(=O)N1CCN(c2ccc(-n3c(=O)ccc4cnc5ccc(-c6cnc7ccccc7c6)cc5c43)cc2C(F)(F)F)CC1,% of control,[12],97%
same,% of control,[13],100%
same,% of control,[14],69%
same,% of control,[15],66%
same,% of control,[16],44%
same,% of control,[17],51%
same,% of control,[18],86%
CN(C)CC#Cc1ccc2[nH]c3c(c2c1)-c1nc(N)ncc1CCC3,IC50,[19],560 nM
